Reference: patent publication US4119729A, “Alkylsulfonylphenoxypropanolamine therapeutic process” (Mead Johnson & Company, priority 1977, dated 1978)
Read-outs that look alike come from different tables or passages of the source.

Key:
[1] = acute toxicity (LD50) in the rat; conditions: in vivo, po
[2] = system: isoproterenol-induced increased contractile force and heart rate; experiment: inhibition of isoproterenol-induced increased contractile force and heart rate in the anesthetized dog; type: in vivo; conditions: Canis lupus familiaris, intravenous, isoproterenol challenge 0.2 mcg./kg. intravenous
Text: A preferred compound of this invention, 1-(isopropylamino)-3-[4-(methylsulfonyl)-3-tolyloxy]-2-propanol hydrochloride, inhibits increased contractile force and heart rate in the anesthetized dog induced by a standard challenge dose of 0.2 mcg./kg.

[3] = acute toxicity (LD50) in the mouse; conditions: in vivo
β-Adrenergic Receptor [4] = experiment: spontaneously beating rabbit atrial preparation, β-adrenergic receptor antagonist molar potency
Text: (§1) Cardioselective β1 -adrenergic blocking activity of the compounds of the present invention can be assessed in standard in vitro pharmacological test systems such as the spontaneously beating rabbit atrial preparation and the guinea pig tracheal preparation.
(§2) A Comparison of β-Adrenergic Receptor Antagonist Molar
(§3) Potencies Determined in Rabbit Atrial and Guinea
(§4) Pig Tracheal Preparations

β-Adrenergic Receptor [5] = experiment: guinea pig tracheal preparation, β-adrenergic receptor antagonist molar potency; conditions: molar potency relative to propranolol = 1
Text: as §1, §2, §3, §4

[6] = system: spontaneous hypertensive rat; experiment: blood pressure lowering in the spontaneous hypertensive rat; type: in vivo; conditions: oral dose of 100 mg./kg. body weight
Procedure: For the purpose of treating hypertension in a mammal, the antihypertensive process of the instant invention is carried out by systemically administering to a mammal in need of such treatment an antihypertensive effective amount of a compound selected from the group characterized by Formula I or preferably by Formula X or a pharmaceutically acceptable non-toxic acid addition salt thereof. By systemic administration, it is intended to include both oral and parenteral routes. Examples of parenteral administration are intramuscular, intravenous, intraperitoneal,rectal, and subcutaneous administration. The dosage will vary with the form of administration and the particular compound chosen. However, from about 0.3 mg. per kg. body weight to 100 mg. per kg. body weight of a compound characterized by Formula I administered in effective single or multiple dosage units is generally satisfactory. In accordance with conventional clinical practice, the antihypertensive agent is administered at a dosage substantially less than the dose of the compound thought to be effective. Thereafter, the dosage is increased by small increments until the optimum antihypertensive effect under the circumstances is reached. At effective antihypertensive dosage levels, the compounds of this invention are substantially free of harmful or deleterious side effects. […]

SMILES	LD50 [1]	ED50 ([2]; read-out: ED50, inhibition of increased contractile force)	ED50 ([2]; read-out: ED50, inhibition of increased heart rate)	LD50 ([3]; ip, read-out: intraperitoneal LD50)	LD50 ([3]; po, read-out: oral LD50)	Potency Ratio Atria (β-Adrenergic Receptor [4]; molar potency relative to propranolol = 1, rabbit atrial preparation)	Cardioselectivity Ratio: Atria/Trachea (β-Adrenergic Receptor [4]; ratio of potency ratios, rabbit atria / guinea pig trachea)	Potency Ratio Trachea (β-Adrenergic Receptor [5])	lowered blood pressure [6]
Cc1cc(OCC(O)CNC(C)C)ccc1S(C)(=O)=O.Cl (stereo not drawn) [1-(ISOPROPYLAMINO)-3-[4-(METHYLSULFONYL)-m-TOLYLOXY]-2-PROPANOL HYDROCHLORIDE]	1790 mg/kg	0.71 mg/kg	2.02 mg/kg	339 mg/kg	1500 mg/kg	0.37	37	0.01	
Cc1cc(OCC(O)CNC(C)COc2ccccc2)ccc1S(C)(=O)=O (stereo not drawn) [3-[4-(methylsulfonyl)-m-tolyloxy]-1-(1-phenoxy-2-propylamino)-2-propanol]									about 22.4 mm Hg
